Measurements from the CheMixHub viscosity set.

Assay: xn = mol fraction of the nth substance listed

CC(=O)CC(C)C + Cc1ccccc1
298.15 K, 101 kPa
Settings	viscosity [mPa·s]
x1 = 0.1094	0.545
x1 = 0.207	0.541
x1 = 0.3183	0.539
x1 = 0.4196	0.538
x1 = 0.5357	0.537
x1 = 0.6441	0.544
x1 = 0.7653	0.539
x1 = 0.8774	0.541

CC(C)CC(C)(C)C + Cc1ccccc1
101 kPa
Settings	viscosity [mPa·s]
298.15 K, x1 = 0.1138	0.519
298.15 K, x1 = 0.2032	0.498
298.15 K, x1 = 0.2796	0.485
298.15 K, x1 = 0.3319	0.477
298.15 K, x1 = 0.4044	0.47
298.15 K, x1 = 0.4365	0.467
298.15 K, x1 = 0.4983	0.464
298.15 K, x1 = 0.618	0.459
298.15 K, x1 = 0.6934	0.458
298.15 K, x1 = 0.7315	0.461
298.15 K, x1 = 0.8036	0.463
298.15 K, x1 = 0.8966	0.467
298.15 K, x1 = 0.9292	0.47
298.15 K, x1 = 0.9743	0.474
308.15 K, x1 = 0.0644	0.4877
308.15 K, x1 = 0.1217	0.4728
308.15 K, x1 = 0.1933	0.4593
308.15 K, x1 = 0.2715	0.4474
308.15 K, x1 = 0.3689	0.4362
308.15 K, x1 = 0.4483	0.4305
308.15 K, x1 = 0.5805	0.4258
308.15 K, x1 = 0.6997	0.425
308.15 K, x1 = 0.8297	0.4265

CCC(C)N (stereo unspecified) + Cc1ccccc1
303.15 K, 101 kPa
Settings	viscosity [mPa·s]
x2 = 0.1499	0.4062
x2 = 0.216	0.4085
x2 = 0.2959	0.4124
x2 = 0.3889	0.419
x2 = 0.5124	0.4325
x2 = 0.613	0.4492
x2 = 0.7105	0.4679
x2 = 0.8708	0.4998

CCCCCCO + Cc1ccccc1
viscosity [mPa·s], 101 kPa
Settings	x2 = 0.1151	x2 = 0.2265	x2 = 0.3342	x2 = 0.4384	x2 = 0.5394	x2 = 0.6372	x2 = 0.7321	x2 = 0.8241	x2 = 0.9133
303.15 K	2.859	2.167	1.692	1.351	1.099	0.882	0.7364	0.6235	0.5592
313.15 K	2.206	1.701	1.341	1.097	0.9164	0.7593	0.6439	0.5569	0.5069
323.15 K	1.661	1.321	1.057	0.8845	0.7532	0.6516	0.5418	0.4674	0.4336

CCOCC + Cc1ccccc1
viscosity [mPa·s], 101 kPa
Settings	293.15 K	298.15 K	303.15 K	308.15 K
x2 = 0.21	0.3	0.29	0.281	0.272
x2 = 0.45	0.379	0.36	0.345	0.331
x2 = 0.71	0.468	0.445	0.419	0.404

O=C1CCCCC1 + Cc1ccccc1
viscosity [mPa·s]
Settings	298.15 K	303.15 K	308.15 K
101 kPa, x1 = 0.1059	0.615	–	–
101 kPa, x1 = 0.2177	0.682	–	–
101 kPa, x1 = 0.3103	0.74	–	–
101 kPa, x1 = 0.4166	0.829	–	–
101 kPa, x1 = 0.5047	0.884	–	–
101 kPa, x1 = 0.6049	0.971	–	–
101 kPa, x1 = 0.7171	1.218	–	–
101 kPa, x1 = 0.7943	1.333	–	–
101 kPa, x1 = 0.9041	1.574	–	–
101 kPa, x2 = 0.1021	–	1.396	–
101 kPa, x2 = 0.202	–	1.218	–
101 kPa, x2 = 0.3024	–	1.068	–
101 kPa, x2 = 0.4051	–	0.9428	–
101 kPa, x2 = 0.4964	–	0.8546	–
101 kPa, x2 = 0.6017	–	0.753	–
101 kPa, x2 = 0.6963	–	0.6911	–
101 kPa, x2 = 0.8022	–	0.6292	–
101.33 kPa, x1 = 0.1032	0.61	0.573	0.543
101.33 kPa, x1 = 0.1997	0.668	0.625	0.59
101.33 kPa, x1 = 0.3024	0.738	0.689	0.648
101.33 kPa, x1 = 0.4055	0.824	0.767	0.721
101.33 kPa, x1 = 0.504	0.922	0.854	0.799
101.33 kPa, x1 = 0.602	1.043	0.972	0.903
101.33 kPa, x1 = 0.7012	1.194	1.103	1.02
101.33 kPa, x1 = 0.7999	1.391	1.273	1.183
101.33 kPa, x1 = 0.9027	1.654	1.505	1.382

CCCCCC(=O)O + ClC(Cl)(Cl)Cl
298.15 K, 101 kPa
Settings	viscosity [mPa·s]
x1 = 0.07	0.966
x1 = 0.13	1.033
x1 = 0.19	1.108
x1 = 0.25	1.188
x1 = 0.47	1.548
x1 = 0.57	1.743
x1 = 0.67	1.927
x1 = 0.84	2.343

CC(=O)CC(C)C + ClC(Cl)Cl
298.15 K, 101 kPa
Settings	viscosity [mPa·s]
x2 = 0.0813	0.5611
x2 = 0.1599	0.5799
x2 = 0.2352	0.5986
x2 = 0.3916	0.6341
x2 = 0.497	0.6494
x2 = 0.6114	0.6521
x2 = 0.7252	0.6349
x2 = 0.864	0.5903
x2 = 0.9291	0.5613

CCOCC + ClC(Cl)Cl
101.33 kPa
Settings	viscosity [mPa·s]
293.15 K, x2 = 0.1704	0.295
293.15 K, x2 = 0.2909	0.354
293.15 K, x2 = 0.4425	0.416
293.15 K, x2 = 0.562	0.466
293.15 K, x2 = 0.6848	0.507
293.15 K, x2 = 0.8038	0.536
293.15 K, x2 = 0.8989	0.555
298.15 K, x1 = 0.274	0.472
298.15 K, x1 = 0.528	0.397
298.15 K, x1 = 0.672	0.34
298.15 K, x1 = 0.863	0.268
298.15 K, x2 = 0.1567	0.282
298.15 K, x2 = 0.3094	0.343
298.15 K, x2 = 0.4329	0.395
298.15 K, x2 = 0.5582	0.445
298.15 K, x2 = 0.6897	0.489
298.15 K, x2 = 0.8073	0.519
298.15 K, x2 = 0.8947	0.536

CCOCC + ClCCl
298.15 K, 101 kPa
Settings	viscosity [mPa·s]
x1 = 0.113	0.4351
x1 = 0.2227	0.4106
x1 = 0.3294	0.3839
x1 = 0.4331	0.3585
x1 = 0.5341	0.3342
x1 = 0.6322	0.3106
x1 = 0.7278	0.289
x1 = 0.8209	0.2687
x1 = 0.9116	0.2496

CCOCC + Nc1ccccc1
298.15 K, 101 kPa
Settings	viscosity [mPa·s]
x1 = 0.3027	1.359
x1 = 0.5488	0.669
x1 = 0.7838	0.38

C[NH+]1CCCC1=O.Cc1ccc(S(=O)(=O)[O-])cc1 + O
viscosity [mPa·s], 100 kPa
Settings	x1 = 0.00179	x1 = 0.003588	x1 = 0.005313	x1 = 0.008042	x1 = 0.01069	x1 = 0.01417	x1 = 0.02116	x1 = 0.02631	x1 = 0.03141
293.15 K	1.079	1.149	1.212	1.311	1.404	1.533	1.806	2.029	2.274
298.15 K	0.9575	–	1.073	1.157	–	1.358	–	1.819	2.048
303.15 K	0.8523	0.9062	0.9554	–	–	1.201	1.42	1.611	1.827
308.15 K	0.7695	0.8124	0.8523	0.9156	0.9784	–	–	1.444	1.64

Cc1cccc[n+]1CCCO.[Cl-] + O
viscosity [mPa·s], 100 kPa
Settings	x1 = 0.0008999	x1 = 0.001798	x1 = 0.003589	x1 = 0.005379	x1 = 0.007153	x1 = 0.00892
293.15 K	1.041	1.068	1.116	1.161	1.203	1.243
298.15 K	0.922	0.945	0.987	1.026	1.063	1.098
303.15 K	0.822	0.841	0.877	0.911	0.943	0.974
308.15 K	0.739	0.756	0.788	0.818	0.846	0.874
313.15 K	0.668	0.682	0.709	0.736	0.761	0.786

O=P([O-])(O)O.[NH4+] + O
viscosity [mPa·s], 101 kPa
Settings	293.15 K	303.15 K	313.15 K	323.15 K
x1 = 0.017	1.312	1.049	0.855	0.71
x1 = 0.038	1.826	1.442	1.17	0.972
x1 = 0.063	–	2.196	1.749	1.438
x1 = 0.095	–	–	–	2.325

OCCOCCOCCOCCOCCOCCOCCO + O
viscosity [mPa·s], 100 kPa
Settings	293.15 K	298.15 K	303.15 K	308.15 K	313.15 K	318.15 K	323.15 K
x2 = 0.059	97.27	73.66	57.03	45.14	36.26	29.64	24.53
x2 = 0.088	93.78	71.34	53.69	42.57	34.29	28	23.21
x2 = 0.188	92.26	69.66	53.76	42.35	33.98	27.72	22.88
x2 = 0.221	92.02	69.89	53.68	42.29	33.97	27.67	22.86

OCCOCCOCCOCCOCCOCCOCCOCCO + O
viscosity [mPa·s], 100 kPa
Settings	293.15 K	298.15 K	303.15 K	308.15 K	313.15 K	318.15 K	323.15 K
x2 = 0.042	108.4	81.84	63.33	50.05	40.2	32.83	27.17
x2 = 0.111	107.4	81.02	62.63	49.38	39.67	32.32	26.74
x2 = 0.267	103	77.64	60.34	47.5	38.03	30.97	25.55
x2 = 0.294	98.4	74.46	57.33	45.14	36.19	29.5	24.36
